{"source": "patent US9896445B2", "about": "“Heterocyclic inhibitors of ERK1 and ERK2 and their use in the treatment of cancer” (Asana Biosciences, LLC, priority 2015, dated 2018)", "key": {"[1]": {"tested_on": "human colon cancer xenograft model (HCT116; harboring KRAS mutation)", "assay": "HCT116 human colon cancer xenograft model, tumor growth inhibition", "type": "in vivo, mice", "conditions": "50 mg/kg BID orally for 24 days", "description": "(§1) In Vivo Studies in Tumor Xenograft Models\n(§2) Tumor Cell Implantation and Randomization of Animals\n(§3) Foxn1 nu/nu strain of female mice (obtained from Charles River Laboratories, USA), 8-10 weeks of age, body weight range 23-25 g, were used for the tumor xenograft efficacy studies. Human cancer cell lines (such as melanoma A375, colorectal HT29, pancreatic BxPC3, colorectal HCT116, and lung A549) were first grown in vitro, and then about five million (5×10^6) of these cells in 100 μL of serum free medium were mixed with an equal amount of matrigel, and the entire mixture was injected subcutaneously at the right flank region of mice. The tumors were measured with Vernier calipers periodically after the first week of injection. […]\n(§4) For PO dosing, the compounds were prepared in a formulation containing 0.5% Methyl cellulose and 0.01% Tween 80. […] Tumors size and body weights were measured twice or thrice in a week. […]\n(§5) Changes in tumor volume (Δ volumes) for each treated (T) and control (C) group were calculated by subtracting the mean tumor volume on the first day of treatment (starting day) from the mean tumor volume on the specified observation day. […]\n(§6) Percentage tumor growth inhibition was calculated as [100−% T/C]. Percentage body weight change was calculated as [(Body weight on specified observation day−Body weight on starting day)/Body weight on starting day]×100."}, "[2]": {"tested_on": "human melanoma xenograft model (A375) harboring B-RAF V600E mutation", "assay": "A375 human melanoma xenograft model, tumor growth inhibition", "type": "in vivo, mice", "description": "as §1, §2\n(§7) Foxn1 nu/nu strain of female mice (obtained from Charles River Laboratories, USA), 8-10 weeks of age, body weight range 23-25 g, were used for the tumor xenograft efficacy studies. Human cancer cell lines (such as melanoma A375, colorectal HT29, pancreatic BxPC3, colorectal HCT116, and lung A549) were first grown in vitro, and then about five million (5×10^6) of these cells in 100 μL of serum free medium were mixed with an equal amount of matrigel, and the entire mixture was injected subcutaneously at the right flank region of mice. The tumors were measured with Vernier calipers periodically after the first week of injection. When the tumor volume reached 120-150 mm^3 (about 3-4 weeks after injection) the animals were randomized into different groups so that their tumor volume was approximately the same in all groups.\nDetermination of In Vivo Efficacy of Tumor Growth Inhibition\n(§8) For PO dosing, the compounds were prepared in a formulation containing 0.5% Methyl cellulose and 0.01% Tween 80. For IV, SC, or IP dosing, the compounds were prepared in 6% solutol-ethanol (1:1), 6% DMSO and 88% saline. Animals were dosed with compounds prepared in specific formulations via PO, IP or SC route either QD or BID at the required doses. Tumors size and body weights were measured twice or thrice in a week. Tumors were harvested at the end of the study after euthanizing the animals according to approved protocols. […]\nas §5, §6"}, "[3]": {"molecular_target": "T1, ERK2 (Homo sapiens, UniProt P28482)", "T1 construct": "purchased Jubilant Biosys", "assay": "ERK2 HTRF (biochemical) assay", "conditions": "HTRF", "procedure,_shortened": "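Readout was time-resolved FRET between europium anti-phospho-MBP and streptavidin-APC after a 60-min room-temperature kinase step. That step used ERK2 (25 nM in enzyme mix), biotinylated MBP peptide (1 uM) and ATP (24 uM) from the substrate mix, in pH 7.5 Tris buffer.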"}, "[4]": {"molecular_target": "T2, ERK1 (Homo sapiens, UniProt P27361)", "T2 construct": "purchased Jubilant Biosys", "assay": "ERK1 HTRF (biochemical) assay", "conditions": "HTRF", "description": "ERK1 and ERK2 HTRF (Biochemical) Assays\nThese assays employed a homogeneous time resolved fluorescence (HTRF) technique. […] The plate was incubated at room temperature for 60 min with shaking. […] The IC50 values (half maximal inhibitory concentration values) were subsequently determined using a sigmoidal dose-response curve (variable slope) in GraphPad Prism® 5 software."}, "[5]": {"tested_on": "phospho-RSK (the downstream target of ERK1/2)", "assay": "Pharmacodynamic assay, phospho-RSK in A375 tumor samples", "type": "in vivo, mice", "conditions": "A375 tumor samples harvested at 1 h after dosing at 50 mg/kg PO, compared to vehicle control", "description": "as §7, §8"}, "[6]": {"tested_on": "phospho-RSK1(S380)", "assay": "Phospho-RSK1(S380) ELISA assay in HT-29 cells", "type": "cell-based, human", "conditions": "read-out: Mechanist Cell Assay RSK1 Phos HT29 IC50", "description": "Phospho-RSK1(S380) ELISA Assay\nHT-29 cells (colorectal carcinoma, B-RafV600E); obtained from ATCC, USA) were seeded (60,000 cells/well) in a 96-well plate and incubated at 37° C./5% CO2 overnight and then treated with desired compound dilutions for 2 h. Medium was removed and cells were rinsed once with ice-cold 1×PBS, then 0.070 mL ice-cold 1× cell lysis buffer containing 1 mM PMSF was added to each well and the plate was incubated on a shaker for 2 h and 30 min at 4° C. The plate was then centrifuged for 20 min (×4000 rpm) at 4° C. and the supernatant was transferred to a new plate. Cell lysates were diluted with sample diluent at a ratio of 1:1. The ELISA was then carried out following the manufacturer's protocol (PathScan® phospho-RSK1(Ser380) Sandwich ELISA Kit, Cell Signaling Technologies). The plate was read at 450 nm within 30 min after adding STOP solution. The IC50 values were subsequently determined using a sigmoidal dose-response curve (variable slope) in GraphPad Prism® 5 software."}, "[7]": {"tested_on": "HCT116 (colorectal carcinoma, K Ras G13D) cells", "assay": "Cell proliferation (Alamar Blue) assay, HCT116", "type": "cell-based, human", "description": "(§9) Cell Proliferation (Alamar Blue) Assay\n(§10) HT-29 (colorectal carcinoma, B-RafV600E), HCT116 (colorectal carcinoma, K Ras G13D), A375 (melanoma, B-RafV600E) and SK-Mel2 (melanoma, NRAS Q61R) cells (obtained from ATCC, USA) were seeded (5000 cells/well) in 96-well tissue culture plate and incubated at 37° C./5% CO2 for 16-24 hours. The cells were then treated with compounds, at concentrations typically from 0.0005 to 10 uM prepared in 3-fold serial dilutions. The plates were then incubated for 72 h at 37° C./5% CO2 in a moist environment. Then Alamar Blue™ reagent (final concentration 1×) was added to each well and incubated for 1-3 h at 37° C./5% CO2. The plates were read on fluorescence reader at 540 nm excitation and 590 nm emission wavelengths. The IC50 values were subsequently determined using a sigmoidal dose-response curve (variable slope) using GraphPad Prism® 5 software."}, "[8]": {"tested_on": "human colon cancer xenograft model (HT-29) harboring B-RAF V600E mutation", "assay": "HT-29 human colon cancer xenograft model, tumor growth inhibition", "type": "in vivo, mice", "conditions": "HT-29 xenograft", "description": "as §1, §2, §3, §4, §5, §6"}, "[9]": {"tested_on": "human pancreatic carcinoma xenograft model, BxPC3 (wild type KRAS)", "assay": "BxPC3 human pancreatic carcinoma xenograft model, tumor growth inhibition", "type": "in vivo, mice", "description": "as §1, §2, §3, §4, §5, §6"}, "[10]": {"tested_on": "HT-29 (colorectal carcinoma, B-RafV600E) cells", "assay": "Cell proliferation (Alamar Blue) assay, HT-29", "type": "cell-based, human", "conditions": "HT29 cells", "description": "as §9, §10"}, "[11]": {"conditions": "50 mg/kg BID orally for 19 days"}, "[12]": {"conditions": "Homo sapiens, HCT-116, HCT116 cells"}}, "note": "Read-outs that look alike come from different tables or passages of the source.", "data": [{"smiles": "Cc1cnc(NC2CC(F)(F)C2)nc1-n1cnc(C(=O)N[C@H](CN)c2cccc(Cl)c2)c1", "note": "[Example 259, (S)-N-(2-amino-1-(3-chlorophenyl)-ethyl)-1-(2-((3,3-difluorocyclobutyl)amino)-5-methyl-pyrimidin-4-yl)-1H-imidazole-4-carboxamide]", "values": [{"measurement": "body weight loss", "setting": "[1]", "result": "no significant body weight loss"}, {"measurement": "body weight loss", "setting": "[2]; [11]", "result": "no significant body weight loss"}]}, {"smiles": "Cc1cnc(NC2CCOCC2)nc1-n1cnc(C(=O)N[C@H](CO)c2cccc(Cl)c2)c1", "note": "[Compound 211, (S)-N-(1-(3-chlorophenyl)-2-hydroxyethyl)-1-(5-methyl-2-((tetrahydro-2H-pyran-4-yl)amino)pyrimidin-4-yl)-1H-imidazole-4-carboxamide]", "values": [{"measurement": "IC50", "setting": "[3]", "result": "≤ 50", "unit": "nM"}, {"measurement": "IC50", "setting": "[4]", "result": "< 50", "unit": "nM"}, {"measurement": "melting point", "result": 145, "unit": "°C"}, {"measurement": "body weight loss", "setting": "[2]; 50 mg/kg BID orally for 17 days", "result": "no significant body weight loss"}, {"measurement": "inhibition of phospho-RSK", "setting": "[5]", "result": "~84", "unit": "%"}]}, {"smiles": "Cc1cnc(NC2CCOCC2)nc1-n1cnc(C(=O)N[C@]2(c3cccc(Cl)c3)C[C@H](O)C2)c1", "note": "[Compound 245, N-((1s,3s)-1-(3-chlorophenyl)-3-hydroxycyclobutyl)-1-(5-methyl-2-((tetrahydro-2H-4-yl)amino)pyrimidin-4-yl)-1H-imidazole-4-carboxamide]", "values": [{"measurement": "IC50", "setting": "[3]", "result": "≤ 50", "unit": "nM"}, {"measurement": "IC50", "setting": "[4]", "result": "< 50", "unit": "nM"}, {"measurement": "IC50", "setting": "[6]; Homo sapiens, HT-29, HT29 cells", "result": "250 to 500", "unit": "nM"}, {"measurement": "IC50", "setting": "[7]; [12]", "result": "500 to 2500", "unit": "nM"}]}, {"smiles": "Cc1cnc(NC2CCOCC2)nc1-n1cnc(C(=O)NC(CO)c2cccc(Cl)c2)c1", "note": "(stereo not shown) [Compound 201, N-(1-(3-chlorophenyl)-2-hydroxyethyl)-1-(5-methyl-2-((tetrahydro-2H-pyran-4-yl)amino)pyrimidin-4-yl)-1H-imidazole-4-carboxamide]", "values": [{"measurement": "body weight loss", "setting": "[8]; 50 mg/kg BID orally for 20 days", "result": "no significant body weight loss"}, {"measurement": "tumor growth inhibition", "setting": "[8]; dosed orally at 50 mg/kg BID for 20 days", "result": "approximately 50%"}, {"measurement": "body weight loss", "setting": "[9]; 50 mg/kg BID orally for 25 days", "result": "no significant body weight loss"}, {"measurement": "tumor growth inhibition", "setting": "[9]; dosed orally at 50 mg/kg BID for 25 days", "result": "about 63%"}, {"measurement": "IC50", "setting": "[3]", "result": "≤ 50", "unit": "nM"}, {"measurement": "IC50", "setting": "[4]", "result": "< 50", "unit": "nM"}, {"measurement": "inhibition of phospho-RSK", "setting": "[5]", "result": "about 66%"}]}, {"smiles": "Cc1cnc(NC2CCOCC2)nc1-n1cnc(C(=O)NC(CN)c2cc(F)cc(Cl)c2)c1", "note": "(stereo not shown) [Compound 236, N-(2-amino-1-(3-chloro-5-fluoro-phenyl)ethyl)-1-(5-methyl-2-((tetrahydro-2H-pyran-4-yl)amino)-pyrimidin-4-yl)-1H-imidazole-4-carboxamide]", "values": [{"measurement": "IC50", "setting": "[10]", "result": "≤ 100", "unit": "nM"}, {"measurement": "IC50", "setting": "[6]; HT29 cells", "result": "≤ 100", "unit": "nM"}, {"measurement": "IC50", "setting": "[7]; HCT116 cells", "result": "≤ 100", "unit": "nM"}]}, {"smiles": "Cc1cnc(NC2CCOCC2)nc1-n1cnc(C(=O)N[C@H](CN)c2cccc(Cl)c2)c1", "note": "(single isomer, unassigned) [Compound 225a]", "values": [{"measurement": "IC50", "setting": "[3]", "result": "≤ 50", "unit": "nM"}, {"measurement": "body weight loss", "setting": "[1]", "result": "no significant body weight loss"}, {"measurement": "IC50", "setting": "[4]", "result": "< 50", "unit": "nM"}, {"measurement": "body weight loss", "setting": "[2]; [11]", "result": "no significant body weight loss"}]}, {"smiles": "Cc1cnc(Nc2ccc(F)cc2)cc1-n1cnc(C(=O)NC(CN)c2ccccc2)c1", "note": "(single isomer, unassigned) [Compound 227, N-(2-amino-1-phenylethyl)-1-(2-((4-fluorophenyl)-amino)-5-methyl-pyridin-4-yl)-1H-imidazole-4-carboxamide]", "values": [{"measurement": "IC50", "setting": "[3]", "result": "≤ 50", "unit": "nM"}, {"measurement": "IC50", "setting": "[4]", "result": "< 50", "unit": "nM"}, {"measurement": "IC50", "setting": "[7]; [12]", "result": "> 2500", "unit": "nM"}]}]}
